The source of these data is BindingDB's records for doi:10.1016/j.bmcl.2021.128215 (Shenyang Pharmaceutical University, 2021).

Structures are written as SMILES. pKi: −log10 of the molar value.

Apoptosis regulator Bcl-2 (Homo sapiens), sequence (P10415 whole entry, looked up): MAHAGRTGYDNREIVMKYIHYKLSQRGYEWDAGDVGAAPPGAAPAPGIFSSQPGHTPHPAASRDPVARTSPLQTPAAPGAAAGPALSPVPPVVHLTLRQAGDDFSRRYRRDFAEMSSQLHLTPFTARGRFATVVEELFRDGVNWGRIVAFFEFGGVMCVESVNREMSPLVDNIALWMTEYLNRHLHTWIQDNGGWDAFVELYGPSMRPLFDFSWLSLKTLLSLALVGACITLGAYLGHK

This assay addresses Apoptosis regulator Bcl-2 (Homo sapiens) (UniProt P10415). Description: Binding affinity to Bcl-2 (unknown origin) by fluorescence polarization competition assay. In general terms: Polarisation of emitted light reports the rotation of a fluorescent probe.
For `O=C(O)c1ccccc1-c1cccc2c1c(-c1cccc(Cl)c1)cn2Cc1cccc2ccccc12`, the negative logarithm of the Ki (pKi) is 7.00.
Then `O=C(O)c1ccccc1-c1cccc2c1c(-c1cccc(Cl)c1)cn2CCOc1cccc2ccccc12`, with 5.49.
Then `O=C(O)c1ccccc1-c1cccc2c1c(-c1cccc(C(F)(F)F)c1)cn2CCCOc1cccc2ccccc12`, with 5.59.
Then `O=C(O)c1ccccc1-c1cccc2c1ccn2CCCOc1cccc2ccccc12`, with 5.34; and `Cc1cccc(-c2cn(Cc3cccc4ccccc34)c3cccc(-c4ccccc4C(=O)O)c23)c1`, with 5.74.
For `CCc1ccccc1-c1cn(CCOc2cccc3ccccc23)c2cccc(-c3ccccc3C(=O)O)c12`, the pKi is 6.52.
Then `Cc1cccc(-c2cn(CCCOc3cccc4ccccc34)c3cccc(-c4ccccc4C(=O)O)c23)c1`, with 6.25.
Then `CC(C)c1ccccc1-c1cn(CCOc2cccc3ccccc23)c2cccc(-c3ccccc3C(=O)O)c12`, with 5.76.
Then `COc1ccccc1-c1cn(Cc2cccc3ccccc23)c2cccc(-c3ccccc3C(=O)O)c12`, with 5.89; and `Cc1ccccc1-c1cn(Cc2cccc3ccccc23)c2cccc(-c3ccccc3C(=O)O)c12`, with 6.18; and `Cc1cccc(-c2cn(CCOc3cccc4ccccc34)c3cccc(-c4ccccc4C(=O)O)c23)c1`, with 6.44.
In the case of `COc1cccc(-c2cn(Cc3cccc4ccccc34)c3cccc(-c4ccccc4C(=O)O)c23)c1`, the pKi was 6.28.
Then `Cc1ccc(-c2cn(CCOc3cccc4ccccc34)c3cccc(-c4ccccc4C(=O)O)c23)cc1`, with 6.06; and `Cc1cccc(-c2cn(CCOc3cccc4ccccc34)c3cccc(-c4ccccc4C(=O)O)c23)c1C`, with 5.89; and `O=C(O)c1ccccc1-c1cccc2c1c(-c1cccc(C(F)(F)F)c1)cn2Cc1cccc2ccccc12`, with 5.97.
On to `COc1ccccc1-c1cn(CCOc2cccc3ccccc23)c2cccc(-c3ccccc3C(=O)O)c12`, for which the negative logarithm of the Ki (pKi) is 6.09. The pKi values of the last two compounds are within 0.2 log units of each other.
Then `O=C(O)c1ccc(Cl)cc1-c1cccc2c1ccn2CCCOc1cccc2ccccc12`, with 6.31; and `O=C(O)c1ccccc1-c1cccc2c1c(-c1cccc(C(F)(F)F)c1)cn2CCOc1cccc2ccccc12`, with 6.60.
`O=C(O)c1ccccc1-c1cccc2c1c(-c1ccccc1)cn2Cc1cccc2ccccc12` had a pKi of 6.09.
Then `Cc1ccccc1-c1cn(CCOc2cccc3ccccc23)c2cccc(-c3ccccc3C(=O)O)c12`, with 6.60; and `Cc1ccc(-c2cn(Cc3cccc4ccccc34)c3cccc(-c4ccccc4C(=O)O)c23)cc1`, with 6.10.

For orientation: pKi means the negative decadic logarithm of the Ki, by convention in mol/L. A high value points to a small Ki.
